Laboratory results as given in patent publication US7939558B2, “Compounds having activity in increasing ion transport by mutant-CFTR and uses thereof” (The Regents of the University of California, priority 2004, dated 2011).

What follows are compounds tested against ΔF508-CFTR (Homo sapiens, UniProt P13569, DEL508-508) (assay: Fluorescence (YFP-H148Q/I152L) I− influx assay of ΔF508-CFTR potentiator activity in FRT cells). Conditions: sulfonamide containing compounds, 27° C. 24 h, forskolin 20 μM, read-out: Ka.
ΔF508-CFTR, sequence (P13569 with tags, fused parts or gaps DEL508-508): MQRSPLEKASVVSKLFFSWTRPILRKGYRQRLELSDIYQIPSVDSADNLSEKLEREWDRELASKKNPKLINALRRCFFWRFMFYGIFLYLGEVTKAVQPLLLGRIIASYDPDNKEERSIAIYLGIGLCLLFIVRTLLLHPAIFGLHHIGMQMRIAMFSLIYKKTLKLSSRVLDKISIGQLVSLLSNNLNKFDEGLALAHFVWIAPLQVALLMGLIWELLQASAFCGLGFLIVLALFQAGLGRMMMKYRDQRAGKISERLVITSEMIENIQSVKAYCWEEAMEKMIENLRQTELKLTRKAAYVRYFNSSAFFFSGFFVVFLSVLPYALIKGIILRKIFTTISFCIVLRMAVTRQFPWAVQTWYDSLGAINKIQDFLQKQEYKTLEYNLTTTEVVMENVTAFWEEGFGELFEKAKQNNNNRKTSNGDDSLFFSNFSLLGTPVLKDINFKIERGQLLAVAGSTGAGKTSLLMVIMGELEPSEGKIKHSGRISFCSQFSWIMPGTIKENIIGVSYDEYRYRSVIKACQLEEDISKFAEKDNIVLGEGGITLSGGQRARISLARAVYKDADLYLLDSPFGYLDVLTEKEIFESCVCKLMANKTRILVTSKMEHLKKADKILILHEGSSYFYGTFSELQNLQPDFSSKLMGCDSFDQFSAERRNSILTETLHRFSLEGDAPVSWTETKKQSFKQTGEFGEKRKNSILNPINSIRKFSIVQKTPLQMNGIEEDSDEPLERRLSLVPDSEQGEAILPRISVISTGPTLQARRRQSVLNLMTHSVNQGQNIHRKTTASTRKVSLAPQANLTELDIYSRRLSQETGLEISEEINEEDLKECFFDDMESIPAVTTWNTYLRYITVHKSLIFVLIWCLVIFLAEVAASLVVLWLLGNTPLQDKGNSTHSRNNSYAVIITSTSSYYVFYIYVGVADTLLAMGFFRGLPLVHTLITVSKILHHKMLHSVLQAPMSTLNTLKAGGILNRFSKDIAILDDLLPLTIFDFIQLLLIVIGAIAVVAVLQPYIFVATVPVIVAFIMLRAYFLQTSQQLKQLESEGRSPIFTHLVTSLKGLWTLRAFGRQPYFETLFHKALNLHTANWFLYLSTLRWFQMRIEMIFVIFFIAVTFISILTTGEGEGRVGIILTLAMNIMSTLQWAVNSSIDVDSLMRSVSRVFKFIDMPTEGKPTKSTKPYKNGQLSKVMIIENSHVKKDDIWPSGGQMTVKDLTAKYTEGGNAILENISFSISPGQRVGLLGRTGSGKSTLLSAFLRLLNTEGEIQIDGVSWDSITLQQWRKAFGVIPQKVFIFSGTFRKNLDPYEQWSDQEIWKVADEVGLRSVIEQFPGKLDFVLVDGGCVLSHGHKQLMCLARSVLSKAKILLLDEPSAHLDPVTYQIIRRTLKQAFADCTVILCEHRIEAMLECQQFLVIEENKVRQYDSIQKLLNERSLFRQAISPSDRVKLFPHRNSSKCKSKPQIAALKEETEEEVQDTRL
Type: cell-based
Design: expressed in transfected cells
Description: Clonal populations of Fischer rat thyroid (FRT) epithelial cells stably co-expressing human ΔF508-CFTR and the high-sensitivity halide-sensing green fluorescent analog YFP-H148Q/I152L (Galietta et al., A.S. (2001) FEBS Lett. 499, 220-224) were generated by liposome transfection and limiting dilution with Zeocin/G418 selection. More than 100 clones were evaluated for high fluorescence and ΔF508-CFTR plasma membrane targeting after growth at 27° C. for 24 hours. For screening, cells were cultured on plastic in Coon's modified F12 medium supplemented with 10% fetal bovine serum, 2 mM L-glutamine, 100 U/ml penicillin, and 100 μg/ml streptomycin, and plated on black 96-well microplates (Corning-Costar 3904) at 30,000 cells/well. For short-circuit measurements cells were cultured on Snapwell permeable supports (Corning-Costar) at 500,000 cells/insert. Human nasal epithelium cells from CF patients were cultured on Snapwell inserts and allowed to differentiate in a hormone-supplemented medium (Galietta et al., Am. J. Physiol., […]). Some measurements were done using stably transfected FRT cells expressing YFP-H148Q and wildtype- or G551D-CFTR (Galietta et al., (2001) J. Biol. Chem. 276, 19723-19728). Patch clamp experiments were done on ΔF508-CFTR-expressing FRT cells plated in 35-mm Petri dishes.
Screening was carried out using a Beckman integrated system containing a 3-meter robotic arm, CO2 incubator containing microplate carousel, plate-washer, liquid handling workstation, bar code reader, delidding station, plate sealer, and two FluoStar fluorescence plate readers (Galaxy, BMG Lab Technologies), each equipped with dual syringe pumps and HQ500/20X ([…]) excitation and HQ535/30M (535±15 nm) emission filters (Chroma). Software was written in VBA (Visual Basic for Applications) to compute baseline-subtracted fluorescence slopes (giving halide influx rates).
For assay of ΔF508-CFTR potentiator activity the incubator (27° C., 90% humidity, 5% CO2/95% air) was loaded with forty-to-sixty 96-well plates containing FRT cells. After an 18-24 hour incubation plates were washed 3 times with PBS (300 μl/wash) leaving 50 μl PBS. 10 μl of PBS containing 120 μM forskolin was added, and after 5 min test compounds (0.6 μl of 0.25 mM DMSO solution) were added to each well to give 2.5 μM final compound concentrations. After 15 min, 96-well plates were transferred to a plate reader for fluorescence assay. Each well was assayed individually for I^− influx by recording fluorescence continuously (200 ms per point) for 2 seconds (baseline) and then for 12 seconds after rapid (<1 s) addition of 160 μL of isosmolar PBS in which 137 mM Cl^− was replaced by I^−. I^− influx rates were computed from initial fluorescence versus time-curve slopes (determined by 3rd order polynomial regression) after normalization for total fluorescence (background subtracted initial fluorescence). All compound plates contained negative control (DMSO vehicle alone) and positive controls (genistein, 5 μM and 50 μM). Assay analysis indicated a Z′-factor of >0.7 (Zhang et al., J. Biomol. Screen 4:67-73 (1999)).
The high-throughput screen was designed to identify compounds that activated ΔF508-CFTR when expressed at the cell plasma membrane. FRT epithelial cells co-expressing ΔF508-CFTR and a high sensitivity yellow fluorescent protein-based halide indicator were incubated at 27° C. for 24 h to permit ΔF508-CFTR plasma membrane targeting (FIG. 1, panel A). After washing, forskolin (20 μM) and test compounds (2.5 μM) were added to individual wells of 96-well plates. The I^− influx assay was carried out ˜15 min later by measurement of the time course of decreasing YFP fluorescence after creation of an inwardly-directed I^− gradient. A high concentration of forskolin was used to identify ΔF508-CFTR potentiators that may interact directly with ΔF508-CFTR rather than alter cAMP concentration. […]
In the case of `CCc1ccccc1N(C)S(=O)(=O)c1ccc2[nH]cc(C(=O)NCc3ccccn3)c(=O)c2c1` [Compound S-18], the EC50 is reported as 270 nM. `COCCCNC(=O)c1c[nH]c2ccc(S(=O)(=O)N(C)c3cc(C)ccc3C)cc2c1=O` [Compound S-19] was tested, and the EC50 was 290 nM. `CCCCNC(=O)c1c[nH]c2ccc(S(=O)(=O)N(C)c3c(C)cccc3C)cc2c1=O` [Compound S-20, 6-[(2,6-Dimethyl-phenyl)-methyl-sulfamoyl]-4-oxo-1,4-dihydro-quinoline-3-carboxylic acid butylamide] was tested, and the EC50 was 330 nM. Work on `CCN(c1ccc(F)cc1)S(=O)(=O)c1ccc2[nH]cc(C(=O)NC3CCCC3)c(=O)c2c1` [Compound S-21, 6-[Ethyl-(4-fluoro-phenyl)-sulfamoyl]-4-oxo-1,4-dihydro-quinoline-3-carboxylic acid cyclopentylamide] yielded an EC50 of 330 nM. In the case of `CCOC(CNC(=O)c1c[nH]c2ccc(S(=O)(=O)N(C)c3ccc(CC)cc3)cc2c1=O)OCC` [Compound S-22], the EC50 is reported as 360 nM. With `COc1ccc(Cl)cc1N(C)S(=O)(=O)c1ccc2[nH]cc(C(=O)NCCC3=CCCCC3)c(=O)c2c1` [Compound S-23] the EC50 was 370 nM. `CCN(CC)S(=O)(=O)c1ccc2[nH]cc(C(=O)NCc3ccc4c(c3)OCO4)c(=O)c2c1` [Compound S-24] showed an EC50 of 380 nM. Work on `CCC(C)NC(=O)c1c[nH]c2ccc(S(=O)(=O)N(C)c3cccc(C)c3)cc2c1=O` (stereo not drawn) [Compound S-25, 6-(Methyl-m-tolyl-sulfamoyl)-4-oxo-1,4-dihydro-quinoline-3-carboxylic acid sec-butylamide] yielded an EC50 of 440 nM. With `CCc1ccccc1N(C)S(=O)(=O)c1ccc2[nH]cc(C(=O)NC(C)CC)c(=O)c2c1` (stereo not drawn) [Compound S-26] the EC50 was 440 nM. In the case of `CCN(c1ccccc1)S(=O)(=O)c1ccc2[nH]cc(C(=O)NCc3ccco3)c(=O)c2c1` [Compound S-27], the EC50 is reported as 460 nM. In the case of `CCN(c1cccc(C)c1)S(=O)(=O)c1ccc2[nH]cc(C(=O)NCCCOC)c(=O)c2c1` [Compound S-28], the EC50 is reported as 480 nM. With `Cc1cccc(N(C)S(=O)(=O)c2ccc3[nH]cc(C(=O)NCCC4=CCCCC4)c(=O)c3c2)c1` [Compound S-29, 6-(Methyl-m-tolyl-sulfamoyl)-4-oxo-1,4-dihydro-quinoline-3-carboxylic acid (2-cyclohex-1-enyl-ethyl)-amide] the EC50 was 490 nM. `CCN(c1ccc(F)cc1)S(=O)(=O)c1ccc2[nH]cc(C(=O)NCC3CCCO3)c(=O)c2c1` (stereo not drawn) [Compound S-30, 6-[Ethyl-(4-fluoro-phenyl)-sulfamoyl]-4-oxo-1,4-dihydro-quinoline-3-carboxylic acid (tetrahydro-furan-2-ylmethyl)-amide] showed an EC50 of 540 nM. With `CCCNC(=O)c1c[nH]c2ccc(S(=O)(=O)N(C)c3cccc(C)c3)cc2c1=O` [Compound S-31] the EC50 was 560 nM. With `O=C(NC1CCCCC1)c1c[nH]c2ccc(S(=O)(=O)N3CCc4ccccc43)cc2c1=O` [Compound S-32, 6-(2,3-Dihydro-indole-1-sulfonyl)-4-oxo-1,4-dihydro-quinoline-3-carboxylic acid cyclohexylamide] the EC50 was 570 nM. Work on `CCN(c1ccccc1)S(=O)(=O)c1ccc2[nH]cc(C(=O)NCc3ccc(C)cc3)c(=O)c2c1` [Compound S-33] yielded an EC50 of 590 nM. `CCOC(=O)C(NC(=O)c1c[nH]c2ccc(S(=O)(=O)N(C)C3CCCCC3)cc2c1=O)C(=O)OCC` [Compound S-34] was tested, and the EC50 was 590 nM. Compound `CCN(c1cccc(C)c1)S(=O)(=O)c1ccc2[nH]cc(C(=O)NCc3ccccc3OC)c(=O)c2c1` [Compound S-35] has an EC50 of 600 nM. Compound `CCOCCCNC(=O)c1c[nH]c2ccc(S(=O)(=O)N(C)c3ccccc3CC)cc2c1=O` [Compound S-36] has an EC50 of 620 nM. With `C=CCN(c1ccccc1)S(=O)(=O)c1ccc2[nH]cc(C(=O)NCc3ccco3)c(=O)c2c1` [Compound S-37, 6-(Allyl-phenyl-sulfamoyl)-4-oxo-1,4-dihydro-quinoline-3-carboxylic acid (furan-2-ylmethyl)-amide] the EC50 was 650 nM. For `CN(c1ccc(Cl)cc1F)S(=O)(=O)c1ccc2[nH]cc(C(=O)NCC3CCCO3)c(=O)c2c1` (stereo not drawn) [Compound S-38], the EC50 was 660 nM. Work on `CCN(CC)S(=O)(=O)c1ccc2[nH]cc(C(=O)NCc3ccc(OC)cc3)c(=O)c2c1` [Compound S-39] yielded an EC50 of 660 nM. Compound `CCN(c1cccc(C)c1)S(=O)(=O)c1ccc2[nH]cc(C(=O)NCCC(C)C)c(=O)c2c1` [Compound S-40] has an EC50 of 720 nM. Compound `CCCCNC(=O)c1c[nH]c2ccc(S(=O)(=O)N(CC)CC)cc2c1=O` [Compound S-41] has an EC50 of 740 nM. `CCc1ccccc1N(C)S(=O)(=O)c1ccc2[nH]cc(C(=O)NCCOC)c(=O)c2c1` [Compound S-43] was tested, and the EC50 was 770 nM. With `CCC(C)NC(=O)c1c[nH]c2ccc(S(=O)(=O)N(C)c3ccc(Br)cc3)cc2c1=O` (stereo not drawn) [Compound S-45] the EC50 was 810 nM. `CCCNC(=O)c1c[nH]c2ccc(S(=O)(=O)N(C)c3ccc(C)c(C)c3)cc2c1=O` [Compound S-46] gave an EC50 of 840 nM. With `Cc1ccccc1N(C)S(=O)(=O)c1ccc2[nH]cc(C(=O)NCCC(C)C)c(=O)c2c1` [Compound S-47, 6-(Methyl-o-tolyl-sulfamoyl)-4-oxo-1,4-dihydro-quinoline-3-carboxylic acid (3-methyl-butyl)-amide] the EC50 was 870 nM. In the case of `CCN(c1ccc(F)cc1)S(=O)(=O)c1ccc2[nH]cc(C(=O)NCCCOC)c(=O)c2c1` [Compound S-50], the EC50 is reported as 1020 nM. Work on `CCN(c1cccc(C)c1)S(=O)(=O)c1ccc2[nH]cc(C(=O)NCC3CCCO3)c(=O)c2c1` (stereo not drawn) [Compound S-51] yielded an EC50 of 1110 nM. `C=CCNC(=O)c1c[nH]c2ccc(S(=O)(=O)N(C)c3ccccc3CC)cc2c1=O` [Compound S-52] was tested, and the EC50 was 1140 nM. Work on `CCN(c1ccccc1)S(=O)(=O)c1ccc2[nH]cc(C(=O)NC(C)C)c(=O)c2c1` [Compound S-53] yielded an EC50 of 1160 nM. `CCCCCCCCNC(=O)c1c[nH]c2ccc(S(=O)(=O)N(C)c3ccccc3OCC)cc2c1=O` [Compound S-54] was tested, and the EC50 was 1160 nM. With `CCCNC(=O)c1c[nH]c2ccc(S(=O)(=O)N(C)c3ccc(F)cc3)cc2c1=O` [Compound S-55] the EC50 was 1250 nM. `CCCCCCNC(=O)c1c[nH]c2ccc(S(=O)(=O)N(CC)c3ccccc3)cc2c1=O` [Compound S-57] gave an EC50 of 1280 nM. `CCOC(CNC(=O)c1c[nH]c2ccc(S(=O)(=O)N(C)c3ccccc3CC)cc2c1=O)OCC` [Compound S-58] was tested, and the EC50 was 1280 nM. Work on `CCC(C)NC(=O)c1c[nH]c2ccc(S(=O)(=O)N(C)c3ccccc3C)cc2c1=O` (stereo not drawn) [Compound S-59] yielded an EC50 of 1280 nM. Work on `CCOCCCNC(=O)c1c[nH]c2ccc(S(=O)(=O)N(C)c3ccc(Cl)cc3F)cc2c1=O` [Compound S-60] yielded an EC50 of 1370 nM. `COCCCNC(=O)c1c[nH]c2ccc(S(=O)(=O)N(C)c3c(C)cccc3C)cc2c1=O` [Compound S-61] gave an EC50 of 1420 nM. Work on `CCCNC(=O)c1c[nH]c2ccc(S(=O)(=O)N(C)c3ccc(Cl)cc3F)cc2c1=O` [Compound S-62] yielded an EC50 of 1450 nM. Compound `CCCCNC(=O)c1c[nH]c2ccc(S(=O)(=O)N(CC)c3ccc(F)cc3)cc2c1=O` [Compound S-64] has an EC50 of 1560 nM. `CCOCCCNC(=O)c1c[nH]c2ccc(S(=O)(=O)N(C)c3ccccc3C)cc2c1=O` [Compound S-65] gave an EC50 of 1660 nM.
